Measured values as given in PMC6112376, “Comprehensive Analyses and Prioritization of Tox21 10K Chemicals Affecting Mitochondrial Function by in-Depth Mechanistic Studies” (Environmental Health Perspectives, 2018).
Where a name gives a salt, the structure may show the parent alone. Read-outs that look alike come from different tables or passages of the source.

Columns and labels:
HepG2 cells [1] = settings: cited from earlier work
rat primary hepatocytes [2] = assay: MMP assay in rat primary hepatocytes; settings: for IC50: Rattus norvegicus, Hepatocyte, read-out: MMP assays IC50 (µM) Rat Hepatocytes
HepG2 cells [3] = assay: cells; settings: Homo sapiens; for IC50: HepG2, read-out: MMP assays IC50 (µM) HepG2; for Emax: HepG2, read-out: MMP assays efficacy (%) HepG2
rat primary hepatocytes [4] = tested on: rat primary hepatocytes
[5] = read-out: MMP assays IC50 (µM) qHTS-HepG2
[6] = read-out: MMP assays IC50 (µM), qHTS-HepG2

Row | SMILES | MMP assays efficacy (%) qHTS-HepG2 (HepG2 cells [1]) | IC50 (HepG2 cells [1]; [5]) | MMP assays IC50 (µM) Rat Hepatocytes (rat primary hepatocytes [2]) | IC50 (HepG2 cells [3]) | Emax (HepG2 cells [3]) | MMP assays efficacy (%) Rat Hepatocytes (rat primary hepatocytes [4]) | IC50 (rat primary hepatocytes [2]) | IC50 (HepG2 cells [1]; [6])
1 | CC(=O)c1cc2c(cc1C)C(C)(C)C(C)CC2(C)C (stereo not shown) | -74±22% | 30.6 ± 18.9 µM | inactive | 28.2 µM | 73% | inactive |  | 
2 | N=C(N)NN=C1C=CC(=NNC(N)=S)C=C1 [Ambazone] | -98±7% | 5.6 ± 3.23 µM |  | 3.98 µM | 61% | -52±11% | 1.98 ± 2.22 µM | 
3 | CO[C@H]1C[C@@H]2CC[C@@H](C)[C@@](O)(O2)C(=O)C(=O)N2CCCC[C@H]2C(=O)O[C@H]([C@H](C)C[C@@H]2CC[C@@H](O)[C@H](OC)C2)CC(=O)[C@H](C)/C=C(\C)[C@@H](O)[C@@H](OC)C(=O)[C@H](C)C[C@H](C)/C=C/C=C/C=C/1C [Sirolimus] | -95±3% |  |  | 17.3 µM | 95% | -61±8% | 20.6 ± 1.68 µM | 20.1 ± 2.07 µM
4 | IC(I)=C(I)I [Tetraiodoethene] | -105±22% |  |  | 6.31 µM | 103% | -115±28% | 22.6 ± 14.4 µM | 5.45 ± 1.27 µM
5 | CCCCCc1ccc(C)cc1O [Amylmetacresol] | -109±16% | 11.2 ± 0.65 µM | inactive |  | 115% | inactive |  | 
6 | Oc1ccc(Cc2ccccc2)cc1 [Compound 4-Benzylphenol] | -124±22% | 15.9 ± 3.38 µM | inactive | 31.6 µM | 118% | inactive |  | 
7 | O=[N+]([O-])c1ccc(Oc2ccc(C(F)(F)F)cc2[N+](=O)[O-])cc1 [Fluorodifen] | -89±20% |  |  | 28.2 µM | 94% | -114±10% | 24.1 ± 15 µM | 27.3 ± 25.1 µM
8 | CSC1=N[C@@](C)(c2ccccc2)C(=O)N1Nc1ccccc1 [Fenamidone] | -72±14% | 43.3 ± 17.1 µM |  | 19.9 µM | 59% | -56±23% | 42.8 ± 10.3 µM | 
9 | Clc1ccc(C(c2ccccc2Cl)C(Cl)Cl)cc1 (stereo not shown) [o,p'-DDD] | -112±11% |  |  | 19.4 µM | 151% | -45±27% | 24.2 ± 14.7 µM | 19.8 ± 0.94 µM
10 | O=S(=O)(Oc1ccc(Cl)cc1)c1ccc(Cl)cc1 [Chlorfenson] | -94±17% | 38.8 ± 25.4 µM |  | 44.7 µM | 88% | -62±24% | 23.7 ± 17.2 µM | 
11 | c1ccc(-c2cccc(-c3ccccc3)c2)cc1 [1,1':3',1''-Terphenyl] | -80±13% | 47.9 ± 14.3 µM |  | 50.1 µM | 90% | -53±28% | 29.6 ± 27.7 µM | 
12 | C[C@]12CC[C@@H]3c4ccc(O)cc4C[C@@H](CCCCCCCCC[S+]([O-])CCCC(F)(F)C(F)(F)F)[C@H]3[C@@H]1CC[C@@H]2O (stereo partly shown) [Fulvestrant] | -99±7% |  |  | 5.48 µM | 94% | -48±0% | 8.84 ± 12 µM | 5.86 ± 0.82 µM
13 | OC1(c2ccc(Cl)c(C(F)(F)F)c2)CCN(CCCC(c2ccc(F)cc2)c2ccc(F)cc2)CC1 [Penfluridol] | -88±15% |  |  | 27.5 µM | 68% | -64±25% | 23.2 ± 6.57 µM | 33.5 µM
14 | Nc1ccccc1N [1,2-Phenylenediamine] | -96±16% | 3.9 ± 3.61 µM |  | 2.51 µM | 87% | -41±14% | 17.9 ± 6.5 µM | 
15 | O=S(=O)(c1ccc(Cl)cc1)c1cc(Cl)c(Cl)cc1Cl [Tetradifon] | -98±2% |  |  | 17.8 µM | 96% | -77±25% | 12.1 ± 6.57 µM | 15.3 ± 7.43 µM
16 | C[C@]12CC[C@H]3C(=CCc4cc(O)ccc43)[C@@H]1CCC2=O [Equilin] | -97±4% | 24.3 ± 4.6 µM |  | 31.6 µM | 126% | -47±10% | 39.1 ± 15.5 µM | 
17 | O=C(Nc1ccccc1)c1ccccc1O [Salicylanilide] | -125±11% |  |  | 3.98 µM | 101% | -91±5% | 29.1 ± 12.2 µM | 3.71 ± 1.27 µM
18 | COc1cc(NS(C)(=O)=O)ccc1Nc1c2ccccc2nc2ccccc12 [Amsacrine hydrochloride] | -75±13% | 10.3 ± 2.45 µM |  | 56.2 µM | 110% | -110±40% | 37.6 ± 3.06 µM | 
19 | CC(C)[C@@H](Nc1ccc(C(F)(F)F)cc1Cl)C(=O)OC(C#N)c1cccc(Oc2ccccc2)c1 (stereo partly shown) [tau-Fluvalinate] |  |  | inactive | 31.6 µM | 58% | inactive |  | 37.2 ± 15.1 µM
20 | CC(=O)C(Cl)(Cl)Cl [1,1,1-Trichloropropanone] | -93±13% | 1.22 ± 0.56 µM |  | 3.16 µM | 123% | -42±17% | 23.7 ± 29.6 µM | 
21 | O=C1c2ccccc2C(=O)c2c1ccc(O)c2O [Alizarin] | -101±8% | 11 ± 1.41 µM |  | 13.8 µM | 94% | -80±8% | 11.9 ± 7.79 µM | 
22 | CN(C)S(=O)(=O)N(SC(F)(Cl)Cl)c1ccccc1 [Dichlofluanid] | -105±5% | 5.24 ± 1.99 µM |  | 25.1 µM | 99% | -59±33% | 23 ± 29.5 µM | 
23 | O=c1c(-c2ccc(O)cc2)coc2cc(O)cc(O)c12 [Genistein] | -101±1% |  |  | 10 µM | 96% | -70±41% | 33.7 ± 19.5 µM | 6.34 ± 0.77 µM
24 | CCC(C)c1ccc(O)cc1 (stereo not shown) [4-(Butan-2-yl)phenol] | -101±7% | 32 ± 3.64 µM | inactive | 35.5 µM | 77% | inactive |  | 
25 | Cc1cc(C(F)(C(F)(F)F)C(F)(F)F)ccc1NC(=O)c1cccc(I)c1C(=O)NC(C)(C)CS(C)(=O)=O [Flubendiamide] | -87±14% |  |  | 25.3 µM | 94% | -80±23% | 12.8 ± 8.15 µM | 18.7 ± 2.59 µM
26 | CC1(C)CCC(C)(C)c2cc(NC(=O)c3ccc(C(=O)O)cc3)ccc21 [Tamibarotene] | -128±10% |  |  | 13.8 µM | 95% | -75±57% | 9.06 ± 6.66 µM | 25.7 ± 1.05 µM
27 | CC(C)CC(=O)C1C(=O)c2ccccc2C1=O [2-Isovaleryl-1,3-indanedione] | -99±5% | 5.24 ± 0.9 µM |  | 56.2 µM | 108% | -107±61% | 22.2 ± 11.1 µM | 
